The source of these data is patent US8658797B2, “Asymmetric ureas and medical uses thereof” (Helsinn Healthcare SA, priority 2011, dated 2014).

The target in assay [1] is T1, GHSR-1a (Homo sapiens, UniProt Q92847).
T1 construct: expressed in transfected cells; host or cells: HEK293
In words: Calcium FLIPR assay, GHSR-1a antagonism (reduction of ghrelin response). It is filed as cell-based. Conditions: HEK293/GHSR1a cell line; ghrelin 10 nM; read-out: IC50 FLIPR antagonist Activity. Here is the method: (§1) The intracellular calcium assay was carried out in a 384-well format FLIPR™ (Molecular Device) HEK293/GHSR1a cell line. Cells were seeded 24 hr prior to the experiments at an optimal density per well. Preincubation with selected calcium dye lasted for 30-60 min at room temperature or 37° C. Test compounds, dissolved in DMSO, were added at the appropriate time and incubated for 15 min followed by the addition of ghrelin with FlexStation or FLIPR. Relative fluorescence was monitored by the FLIPR™ Molecular Device. EC50 and IC50 values were estimated from dose-response data using GraphPad Prism software. To check for GHSR-1a agonism the compound was added at t=20 sec. and the calcium response was followed for 2 minutes. To check for GHSR-1a antagonism the compound and Ghrelin (10 nM) were added to the cells at t=20 sec. and the calcium response was measured for 2 minutes. The potency of the antagonist was calculated by its ability to reduce the ghrelin response. Dose-response curves were made for relevant antagonists.

The target of assay [2] is T1, GHSR-1a. Description: Calcium FLIPR assay, GHSR-1a agonism. Conditions: HEK293/GHSR1a cell line; read-out: EC50 FLIPR against Activity (EC50 part of μM/Emax). It is filed as cell-based. Here is the method: as §1
The test system of a further assay is Male C57BL/6J mice. Description: Evaluation of GHSR1a antagonists on food intake test in mouse. It is filed as in vivo. Conditions: for Mouse Food Intake effect: NSE: not significant effect. As to the method: Male C57BL/6J mice, 18-22 g body weight, were fasted overnight (16 h before compound administration) and placed in a regular light dark cycle (6:00-18:00 light/18:00-6:00 dark). After 1 wk acclimation, animals were sorted into two groups (n=6 each, 2 per cage) based on body weight. Animals in group one were be treated with vehicle and animals in group 2 were treated with the test agent (n=6 for each group). The cumulative food intake was evaluated at 1, 2, 4, 8 and 24 hrs after drug or vehicle treatment. Food intake was measured by subtracting uneaten food from the initial premeasured food.

[3] abbreviates: Mus musculus, ip, 30 mg/kg i.p., at 1 hr.
The mark [4] stands for this setting: Mus musculus, ip, 10 mg/kg i.p., at 1 hr.

T1 sequence (Q92847 whole entry): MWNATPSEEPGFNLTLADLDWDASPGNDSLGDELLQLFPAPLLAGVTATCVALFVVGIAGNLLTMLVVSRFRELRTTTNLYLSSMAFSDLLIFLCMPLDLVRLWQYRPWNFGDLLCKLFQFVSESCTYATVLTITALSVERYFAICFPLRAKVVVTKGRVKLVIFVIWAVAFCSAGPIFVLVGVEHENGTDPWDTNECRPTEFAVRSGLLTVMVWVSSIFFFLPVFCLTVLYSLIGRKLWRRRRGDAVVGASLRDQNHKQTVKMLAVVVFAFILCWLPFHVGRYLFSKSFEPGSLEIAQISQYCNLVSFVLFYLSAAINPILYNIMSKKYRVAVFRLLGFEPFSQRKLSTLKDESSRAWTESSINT

Turning to `C[C@@H](NC(=O)N(C)C1CCN(C)CC1(C)C)c1cccc2ccccc12` (stereo partly drawn), the IC50 at GHSR-1a [1] was 0.021 µM. For the same molecule, the EC50 at GHSR-1a [2] was 0.009 µM. In the assay on Male C57BL/6J mice (30 mg/kg i.p.), the “Mouse Food Intake, activity up to” value is at most 8 h. The molecule further displayed an inhibition in vivo at 30 mg/kg with Male C57BL/6J mice (Mus musculus, ip, 30 mg/kg i.p., at 4 h) of 47%.
As to `C[C@@H](NC(=O)N(Cc1ccccc1)C1CCN(C)CC1(C)C)c1cccc2ccccc12` (stereo partly drawn), the IC50 at GHSR-1a [1] was 0.005 µM. In addition, at GHSR-1a [2], the EC50 was determined as 0.006 µM. Also, in the assay with Male C57BL/6J mice (30 mg/kg i.p.), the “Mouse Food Intake effect” value is listed as “NSE (30 mg/kg)”.
On to `CCN(C(=O)NC(C)c1cccc2ccccc12)C1CCN(C)CC1` (stereo not drawn), for which the IC50 at GHSR-1a [1] was determined as 0.32 µM. The “Mouse Food Intake, activity up to” value with Male C57BL/6J mice (30 mg/kg i.p.) is at most 24 h. Besides, at 30 mg/kg the inhibition in vivo in the assay with Male C57BL/6J mice (setting [3]) was 28%.
`CC(NC(=O)N(C)C1CCN(C)CC1)c1cccc(Cl)c1Cl` (stereo not drawn): on GHSR-1a [1], the IC50 was found to be 0.12 µM. Moreover, the EC50 on GHSR-1a [2] came to 0.009 µM. In the assay with Male C57BL/6J mice (10 mg/kg i.p.), the “Mouse Food Intake effect” value is on record as “NSE (10 mg/kg)”.
In the case of `COc1ccc(C(C)NC(=O)N(C)C2CCN(C)CC2)c2ccccc12` (stereo not drawn), the IC50 on GHSR-1a [1] is 0.04 µM. In addition, the EC50 at GHSR-1a [2] worked out at 0.03 µM. Moreover, the “Mouse Food Intake effect” value in the assay with Male C57BL/6J mice (10 mg/kg i.p.) is recorded as “NSE”. The “Mouse Food Intake, activity up to” value in the assay on Male C57BL/6J mice (30 mg/kg i.p.) is at most 24 h. For the same molecule, the “Mouse Food Intake % increase food intake” value in the assay with Male C57BL/6J mice (30 mg/kg i.p., at 1 hr) is on record as 70%.
Take `CN1CCC(N(C)C(=O)NC(CO)c2cccc3ccccc23)CC1` (stereo not drawn): at GHSR-1a [1], the IC50 stood at 0.91 µM. For the same molecule, the EC50 at GHSR-1a [2] came out at 0.49 µM. The same molecule displayed an inhibition in vivo at 10 mg/kg in the assay on Male C57BL/6J mice (Mus musculus, ip, 10 mg/kg i.p., 'at to 24 hrs') of 27%.
Turning to `CC(NC(=O)N(Cc1ccccc1)C1CCN(C)CC1)c1cccc(Cl)c1Cl` (stereo not drawn), the IC50 at GHSR-1a [1] came out at 0.022 µM. The EC50 on GHSR-1a [2] was 16.8 µM. The same molecule displayed an inhibition in vivo at 10 mg/kg in the assay on Male C57BL/6J mice (setting [4]) of 47%.
Take `CCN(C(=O)NC(CCc1cccc(OCc2cccnc2)c1)c1cccc2ccccc12)C1CCN(C)CC1` (stereo not drawn): the IC50 at GHSR-1a [1] came out at 0.075 µM. Besides, the EC50 at GHSR-1a [2] came out at 18.7 µM. For the same molecule, the “Mouse Food Intake, activity up to” value in the assay with Male C57BL/6J mice (10 mg/kg i.p.) was at most 24 h. For the same molecule, the inhibition in vivo at 10 mg/kg in the assay with Male C57BL/6J mice (setting [4]) amounted to 74%.
As for `COc1ccc(C(CO)NC(=O)N(C)C2CCN(C)CC2)c2ccccc12` (stereo not drawn), the IC50 on GHSR-1a [1] was determined as 0.066 µM. Further, on GHSR-1a [2], the EC50 turned out to be 0.02 µM. In addition, the inhibition in vivo at 10 mg/kg in the assay with Male C57BL/6J mice (setting [4]) was found to be 47%.
With `CC(NC(=O)N(Cc1cccc(F)c1)C1CCN(C)CC1)c1cccc(Cl)c1Cl` (stereo not drawn), at GHSR-1a [1], the IC50 is 0.065 µM. This molecule showed an inhibition in vivo at 10 mg/kg with Male C57BL/6J mice (setting [4]) of 44%.
As to `CC(NC(=O)N(C)C1CCN(C)CC1(C)C)c1cccc(Cl)c1Cl` (stereo not drawn), the IC50 at GHSR-1a [1] stood at 0.012 µM. Moreover, 10 mg/kg produced 26% inhibition in vivo with Male C57BL/6J mice (setting [4]).
On to `CN1CCC(N(C)C(=O)NC(COCc2ccccc2)c2cccc(Cl)c2Cl)CC1` (stereo not drawn), for which the half-maximal inhibitory concentration (IC50) at GHSR-1a [1] came to 0.07 µM. The “Mouse Food Intake effect” value with Male C57BL/6J mice (3 mg/kg i.p.) is recorded as “NSE”. For the same molecule, the “Mouse Food Intake, activity up to” value in the assay with Male C57BL/6J mice (10 mg/kg i.p.) was at most 4 h; with Male C57BL/6J mice (30 mg/kg i.p.), at most 2 h. Also, in the assay with Male C57BL/6J mice (setting [4]), the inhibition in vivo at 10 mg/kg came to 40%. Further, in the assay with Male C57BL/6J mice (setting [3]), the inhibition in vivo at 30 mg/kg turned out to be 50%.
In the case of `CC(NC(=O)N(Cc1ccccc1Cl)C1CCN(C)CC1)c1cccc(Cl)c1Cl` (stereo not drawn), on GHSR-1a [1], the IC50 amounted to 0.038 µM. Besides, the “Mouse Food Intake, duration of activity” value in the assay on Male C57BL/6J mice (3 mg/kg i.p., after 1 hr) is recorded as “no activity up to follow hrs”. Further, the “Mouse Food Intake, activity up to” value with Male C57BL/6J mice (10 mg/kg i.p.) and in the assay with Male C57BL/6J mice (30 mg/kg i.p.) was at most 24 h in each case. This molecule displayed an inhibition in vivo at 3 mg/kg in the assay with Male C57BL/6J mice (Mus musculus, ip, 3 mg/kg i.p., at 1 hr) of 39%. In the assay on Male C57BL/6J mice (setting [4]), this molecule came in with an inhibition in vivo at 10 mg/kg of 95%. This molecule displayed an inhibition in vivo at 30 mg/kg in the assay with Male C57BL/6J mice (Mus musculus, ip, 30 mg/kg i.p., at 2 hr) of 70%.
Consider `COc1cccc(CN(C(=O)NC(C)c2cccc(Cl)c2Cl)C2CCN(C)CC2(C)C)c1` (stereo not drawn), for which the IC50 at GHSR-1a [1] was determined as 0.005 µM. The “Mouse Food Intake effect” value with Male C57BL/6J mice (10 mg/kg i.p.) was “NSE (10 mg/kg)”.
In the case of `COc1ccc(C(C)NC(=O)N(C)C2CCN(C)CC2(C)C)c2ccccc12` (stereo not drawn), the IC50 at GHSR-1a [1] stood at 0.012 µM. At GHSR-1a [2], the EC50 stood at 0.01 µM. Also, in the assay on Male C57BL/6J mice (10 mg/kg i.p.), the “Mouse Food Intake effect” value is given as “NSE (10 mg/kg)”.
The matching figures for `COc1ccc(C(C)NC(=O)N(C)C2CCN(C)CC2(C)C)c(Cl)c1Cl` (stereo not drawn): 0.003 µM, 0.01 µM and “NSE (10 mg/kg)”.
`CC(NC(=O)N(Cc1ccccc1F)C1CCN(C)CC1(C)C)c1cccc(Cl)c1Cl` (stereo not drawn): at GHSR-1a [1], the IC50 worked out at 0.007 µM. Besides, in the assay on Male C57BL/6J mice (10 mg/kg i.p.), the “Mouse Food Intake effect” value is reported as “NSE (10 mg/kg)”.
The corresponding values for `COc1cccc(CN(C(=O)N[C@H](C)c2cccc(Cl)c2Cl)C2CCN(C)CC2C)c1` (stereo partly drawn) are 0.005 µM and “NSE (10 mpk)”.
For the molecule `COc1ccc(C(C)NC(=O)N(OC)C2CCN(C)CC2)c(Cl)c1Cl` (stereo not drawn), the half-maximal inhibitory concentration (IC50) at GHSR-1a [1] came to 0.004 µM. In addition, the EC50 on GHSR-1a [2] is 0.0082 µM.
With `COc1ccc(C(C)NC(=O)N(O)C2CCN(C)CC2)c2ccccc12` (stereo not drawn), the EC50 at GHSR-1a [2] was determined as 0.0021 µM.
